Several values for one entry are separate records, joined by “and”; a condition that tells them apart may be missing. Equal entries are not always repeated. Activity calls are given as the source filed them.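 Rule for the calls: active = compounds giving half or more protection of infected cells from virus-caused growth loss, again on retest; inactive = the rest.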 Where a SMILES comes first, the peptide text is derived from it.
Test system: CEM cells HIV-1 protection, formazan growth assay
Assay: NCI AIDS Antiviral Assay
Conditions: for IC50: measured here: growth of uninfected CEM cells
Method in brief: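 Protection of CEM cells against HIV-1 was scored from cell growth (soluble formazan) across five concentrations, with parallel uninfected cells. Lack of protection may reflect toxicity.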

| SMILES | outcome | EC50 | IC50 |
| --- | --- | --- | --- |
| Cc1c(Cc2cc(C(C)(C)C)c(O)c(C(C)(C)C)c2)c(C)c(Cc2cc(C(C)(C)C)c(O)c(C(C)(C)C)c2)c(C)c1Cc1cc(C(C)(C)C)c(O)c(C(C)(C)C)c1 | inactive |  |  |
| CCc1cccc(C(C)(C)C)c1NC(=S)NC=C(C#N)C#N |  | > 200 µM | 145 µM |
| Cn1c(=O)n2n(c1=O)C1C=CC2C2C=C(c3ccccc3)C21 (stereo not drawn) | inactive |  |  |
| O=[N+]([O-])c1cccc(S(=O)(=O)N2CCCC2)c1 |  | > 200 µM | 166 µM |
| S=C(N/N=C/c1ccccn1)Nc1ccc(Cl)cc1 |  | > 2 µM | 0.0891 µM |
| COc1cc(Nc2nc3cc(C)ccc3nc2-c2ccccc2)cc(OC)c1OC |  | > 200 µM | 34.7 µM |
| CCOC(=O)C1C/C2=C(/CCCCCCCCCC2)SCCCS1 (stereo not drawn) |  | > 200 µM | 26.9 µM |
| O=C1c2cccnc2S(=O)(=O)N1c1ccc(Oc2ccccc2)cc1 |  | > 200 µM | > 200 µM |
| NC(=S)N/N=C1\C(=O)N(CCc2ccccc2)C(=O)C1C(=O)NCCc1ccccc1 (stereo not drawn) |  | > 81.3 µM | 70.8 µM |
| Cc1ccc(NC(=O)CCC(=O)C2CC(=O)CCC2=O)cc1C (stereo not drawn) |  | > 794 µM | > 794 µM |
| C=[CH][Sn]([CH]=C)([S]c1cccc2cccnc12)[S]c1cccc2cccnc12 | inactive |  |  |
| C[N+](C)(C)CCCC#CC[N+]1(C)CCc2ccccc2C1 (stereo not drawn) | inactive |  |  |
| CC/C(CC(=O)CCC(=O)Nc1ccccc1[N+](=O)[O-])=N/NC(=O)C[n+]1ccccc1 |  | > 25.7 µM | > 25.7 µM |
| CCOC(=O)CSC1NC(C(=O)OC)CC1OC (stereo not drawn) |  | > 200 µM | > 200 µM |
| CCN(CC)C(=O)C1(C)NS(=O)(=O)c2ccccc2C1=O (stereo not drawn) |  | > 200 µM | > 200 µM |
| CON1C(=O)C(c2cccs2)=C2SCC=C21 |  | > 170 µM | 4.27 µM |
| O=C(c1ccco1)N(C(=O)N1CCC(c2ccccc2)CC1)c1ccccc1 |  | > 200 µM | 29.5 µM |
| CCCO/N=C\c1c2c(O)c3c(O)c(C)c4c(c3c1O)C(=O)C(C)(O/C=C\C(OC)C(C)C(OC(C)=O)C(C)C(O)C(C)C(O)C(C)/C=C\C=C(\C)C(=O)N2)O4 (stereo not drawn) |  | > 100 µM | 5.25 µM |
| O=C1NC2CC1C(O)C2O (stereo not drawn) |  | > 200 µM | > 200 µM |
| O=c1oc2c3ccc4ccccc4c3n(CCN3CCCCC3)c2c2ccccc12 |  | > 8.71 µM | 6.76 µM |
| CCn1c2ccccc2c2ccc3c(c21)C(=O)C=CC3=O |  | > 26.3 µM | > 26.3 µM |

| SMILES | outcome | EC50 | IC50 |
| --- | --- | --- | --- |
| O=[N+]([O-])c1ccc(C(Nc2ccccc2)P(c2ccccc2)c2ccccc2)cc1 (stereo not drawn) |  | > 200 µM | 43.7 µM |
| Cc1ccc([N+](=O)[O-])c2c(NCCCN(C)C)c3ccccc3nc12 |  | > 0.2 µM | 0.0513 µM |
| CC12CCC(=O)N1c1cccnc1N2 (stereo not drawn) |  | > 1320 µM | 1120 µM |
| C[n+]1cn(CC(=O)c2ccccc2)c(C(N)=O)c1N |  | > 263 µM | 214 µM |
| CS(=O)(=O)Oc1nn2c(OS(C)(=O)=O)nnc2s1 |  | > 200 µM | 28.8 µM |
| CCOC(=O)c1ccc(CS(=O)(=O)c2ccc(OC)cc2)cc1 |  | > 56.2 µM | > 56.2 µM |
| CCOC(=O)/C(=C/c1ccc(C)cc1)P(=O)(OCC)OCC |  | 562 µM | 631 µM |
| CC(=O)N1C(c2[nH]c3ccccc3c2Cc2ccccc2)CCN1c1ccccc1 (stereo not drawn) |  | > 200 µM | 102 µM |
| Cc1c(OCc2cccc3ccccc23)ccc2c(=O)cc(SCCN3CCOCC3)oc12 | inactive |  |  |
| CNC(=O)c1n[nH]n(Cc2ccccc2)c1=S |  | > 200 µM | > 200 µM |
| CN(C)c1ccc(C=Nc2ccc(SSc3ccc(N=Cc4ccc(N(C)C)cc4)cc3)cc2)cc1 |  | > 200 µM | 25.1 µM |
| CC1(C)O[C@@H]2[C@@H](COC(C)(C)O[C@H]2C2SCCCS2)O1 |  | > 200 µM | > 200 µM |
| CN(C)CCNC(=O)Cn1ccc(=O)c2c([N+](=O)[O-])cccc21 |  | > 200 µM | > 200 µM |
| CC(C)CCCC(C)[C@H]1CC[C@@H]2[C@H]3CC[C@H]4C[C@@H](CCC=C(c5cc(Cl)c(OCc6ccccc6[N+](=O)[O-])c(C(=O)OCc6ccccc6[N+](=O)[O-])c5)c5cc(Cl)c(OCc6ccccc6[N+](=O)[O-])c(C(=O)OCc6ccccc6[N+](=O)[O-])c5)CC[C@]4(C)[C@@H]3CC[C@]12C (stereo partly drawn) |  | 112 µM | > 200 µM |
| CC1Cn2c(c(-c3ccccc3)c(=O)[nH]c2=O)O1 (stereo not drawn) |  | > 363 µM | > 363 µM |
| O=C1CSc2nc3ccccc3n2/C=N\N1 |  | > 200 µM | > 200 µM |
| N#CCCN(CCC#N)c1ccc(/C=C(/NC(=O)c2cc([N+](=O)[O-])ccc2Cl)C(=O)N=[N+]=[N-])cc1 |  | > 20.4 µM | > 20.4 µM |
| C[C@H](N)C(=O)N[C@@H]1[C@H]2C(=C(O)C[C@@H](O)[C@@H]2O)C(=O)O[C@]1(C)C(Cl)Cl |  | > 67.6 µM | 0.224 µM |
| CCCCC(N)CSSCC(N)CCCC (stereo not drawn) |  | > 741 µM | 21.4 µM |
| OC(=Nc1cc(C(O)=Nc2cc(C(O)=Nc3cc(C(O)=Nc4ccc(C5=NCCN5)cc4)cc(C4=NCCN4)c3)cc(C3=NCCN3)c2)cc(C2=NCCN2)c1)c1ccc(C(O)=Nc2cc(C(O)=Nc3cc(C(O)=Nc4cc(C(O)=Nc5ccc(C6=NCCN6)cc5)cc(C5=NCCN5)c4)cc(C4=NCCN4)c3)cc(C3=NCCN3)c2)cc1 |  | 14.5 µM | > 100 µM |
| CN1CC(C(=O)NC2(C)OC3(O)C4CCCN4C(=O)C(Cc4ccccc4)N3C2=O)C=C2c3cccc4[nH]cc(c34)CC21 (stereo not drawn) |  | > 61.7 µM | 28.8 µM |

| SMILES | outcome | EC50 | IC50 |
| --- | --- | --- | --- |
| COc1cc(C(=O)O)c2c(c1C)OC(=O)c1c(C)cc(O)c(C=O)c1O2 |  | > 83.2 µM | 36.3 µM |
| COC1N(C2CC(N=[N+]=[N-])C(CO)O2)C(=O)NC(=O)C1(C)Br (stereo not drawn) |  | 0.00479 µM and 0.00263 µM and 0.0049 µM | 40.7 µM and 38.9 µM and 16.2 µM |
| CCCCNS(=O)(=O)c1ccc(-c2c3nc(c(-c4ccc(S(=O)(=O)NCCCC)cc4)c4ccc([nH]4)c(-c4ccc(S(=O)(=O)NCCCC)cc4)c4nc(c(-c5ccc(S(=O)(=O)NCCCC)cc5)c5ccc2[nH]5)C=C4)C=C3)cc1 |  | > 200 µM | > 200 µM |
| O=C1NC(=S)S/C1=C\c1ccc(Cl)cc1 |  | > 74.1 µM | 66.1 µM |
| OC1(CN2CCCCC2)N=C(c2ccccc2)c2ccsc2-n2cccc21 (stereo not drawn) |  | > 200 µM | 117 µM |
| OC12CC/C(=N/OCc3ccccc3)CC1c1ccccc12 (stereo not drawn) |  | > 162 µM | 148 µM |
| O=C1OC2C(O)COC2(O)C1(O)C(C[N+](=O)[O-])c1ccc(Cl)cc1 (stereo not drawn) |  | > 200 µM | 17 µM |
| COc1cc2c(cc1OC)-c1cc3cc(OC)c(OC)cc3c(=O)n1CC2 |  | > 200 µM | 7.24 µM |
| CCOC(=O)C1=C(N)SCCC1 |  | > 1320 µM | 257 µM |
| CC(C1=CC=C2[C@@H]3CCC4CC(N(C)C)CC[C@]4(C)C3CC[C@]12C)N(C)C=O (stereo partly drawn) |  | > 35.5 µM | > 35.5 µM |
| COC1OC(=O)C(OC)C(OC)C1OC (stereo not drawn) | inactive |  |  |
| O=CC[C@H]1C(=O)C[C@@H]2CCC[C@@H]21 |  | > 794 µM | 44.7 µM |
| CC(=O)OCC1OC(n2c(=S)n(-c3ccccc3)c(=O)c3cc(Br)ccc32)C(OC(C)=O)C(OC(C)=O)C1OC(C)=O (stereo not drawn) |  | > 10.7 µM | > 10.7 µM |
| CCC[CH2][Sn]([CH2]CCC)([O]C(=O)c1nccnc1N)[O]C(=O)c1nccnc1N |  | > 51.3 µM | 0.288 µM |
| CC(C)(C)n1[se]c2ccccc2c1=O |  | > 129 µM | 9.33 µM |
| Clc1nc(Cl)nc(Nc2ncccn2)n1 |  | > 200 µM | > 200 µM |
| O=C1/C(=C/c2ccccc2)CN(C(=O)Oc2ccccc2)C/C1=C\c1ccccc1 | inactive |  |  |
| COc1ccc(C2=C(c3ccccc3)C(=O)C(c3ccccc3)=C2c2ccccc2)cc1 | inactive |  |  |
| CCOC(=O)c1c(N)sc2c1CCCCC2 |  | > 95.5 µM | > 95.5 µM |
| O=C(Nc1ccc(/C=C/c2ccc(NC(=O)c3cc(S(=O)(=O)O)c4cccnc4c3O)cc2S(=O)(=O)O)c(S(=O)(=O)O)c1)c1cc(S(=O)(=O)O)c2cccnc2c1O |  | 4.47 µM | 148 µM |
| COc1ccccc1N1C(=O)/C(=C\c2cc(OC)c(OC)c(OC)c2)SC1c1ccccc1 (stereo not drawn) |  | > 200 µM | 39.8 µM |

| SMILES | outcome | EC50 | IC50 |
| --- | --- | --- | --- |
| O=C1CC(=O)Nc2ccccc2N1 |  | > 200 µM | > 200 µM |
| CC(Cl)(/C=C/Cl)C(Cl)/C=C/C(Cl)(CCl)CBr (stereo not drawn) | inactive |  |  |
| CCCC(=O)N/S(=N/S(=O)(=O)c1ccc(Cl)cc1)C(Cl)(Cl)Cl (stereo not drawn) |  | 162 µM | > 200 µM |
| CC(C)CC(NC(=O)C(CO)NC(=O)C(CCCCN)NC(=O)C(CCCCN)NC(=O)C(NC(=O)CNC(=O)C(C)NC(=O)C(CCCN=C(N)N)NC(=O)C(NC(=O)C(N)C(C)C)C(C)C)C(C)C)C(=O)O (stereo not drawn) (H-VVRAGVKKSL-OH; configuration not given here) | inactive |  |  |
| Cc1cc(Oc2cnc(=O)[nH]c2)cs1 |  | > 200 µM | > 200 µM |
| O=S(=O)(F)c1ccc(Cl)cc1C[P+](c1ccccc1)(c1ccccc1)c1ccccc1 |  | > 200 µM | 87.1 µM |
| COc1cc2oc(=O)cc(C)c2c(OC)c1O | inactive |  |  |
| Oc1ccc(Cl)cc1-c1nc2ccccc2s1 |  | > 138 µM | 75.9 µM |
| C/C(=N/NC(=O)c1ccncc1)C(F)(F)F | inactive |  |  |
| Cc1cc(=O)[nH]c(NN2C(Cl)C(=O)C2c2ccc([N+](=O)[O-])cc2)n1 (stereo not drawn) |  | > 53.7 µM | 8.51 µM |
| CC1CN(CCO)CC(C)O1 (stereo not drawn) |  | > 1580 µM | > 1580 µM |
| CN(C)CCNC(=O)c1cccc2c(Nc3ccc(S(=O)(=O)N=C(N)N)cc3)c3ccccc3nc12 | inactive |  |  |
| CCOC1CC2OC(=O)C1C=C2C(=O)OC (stereo not drawn) | inactive |  |  |
| Cc1ccc(/C(=C\C(=O)C(=O)NC23CC4CC(CC(C4)C2)C3)Sc2ccccc2)cc1 |  | > 200 µM | 117 µM |
| CC1(C)OC2OC(COC(=S)SSC(=S)OCC3OC4OC(C)(C)OC4C4OC(C)(C)OC34)C3OC(C)(C)OC3C2O1 (stereo not drawn) |  | > 200 µM | 5.62 µM |
| C1CCC(OCC2(COC3CCCCO3)CCCCO2)OC1 (stereo not drawn) |  | > 200 µM | > 200 µM |
| O=c1ccc2ccccc2o1 |  | > 1700 µM | 1410 µM |
| CCOC1OCN(C)CC1(C)C (stereo not drawn) |  | > 1450 µM | 79.4 µM |

Reference: PubChem BioAssay AID179 (DTP/NCI, 2004)
